Molecular target: T1, phosphatidylinositol 3-kinase gamma isoform (p110?), recombinant GST-p110? (Homo sapiens, UniProt P48736)
T1 construct: made in house; host or cells: Sf9 (Spodoptera frugiperda) insect cells, baculovirus
Test: PI3K gamma in vitro kinase assay (Scintillation Proximity Assay, phosphate transfer from ATP to phosphatidylinositol)
Type: biochemical
Details: for IC50: gamma isoform, fluorinated Example compound
Text: Compounds of formula I and their pharmaceutically acceptable salts, hereinafter referred to alternatively as agents of the invention, are useful as pharmaceuticals.
Baculovirus expressing different fragments of PI3K? fused to GST have been previously described by Stoyanova, S., Bulgarelli-Leva, G., Kirsch, C., Hanck, T., Klinger, R., Wetzker, R., Wymann, M. P. (1997) Lipid- and protein kinase activities of G protein-coupled PI 3-kinase g: structure-activity analysis and interactions with wortmannin. Biochem. J., 324:489. Residues 38-1102 of human PI3K? are subcloned into the BamH1 and EcoR1 sites of the transfer vector pAcG2T (Pharmingen) to create a GST-PI3K? lacking the first 37 residues of PI3K?. To express the recombinant protein, Sf9 (Spodoptera frugiperda 9) insect cells are routinely maintained at densities between 3×10^5 and 3×10^6 cells/ml in serum containing TNMFH medium (Sigma). Sf9 cells, at a density of 2×10^6 are infected with human GST-PI3K[…] 34 baculovirus at a multiplicity of infection (m.o.i.) of 1 for 72 hours. The infected cells are harvested by centrifugation at 1400 g for 4 minutes at 4° C. and the cell pellets are frozen at −80° C. Both Sf9 and Sf21 cells work equally well. Sf9 cells (1×10^9) are resuspended in 100 ml cold (4° C.) lysis buffer (50 mM Tris-HCl pH 7.5, 1% Triton X-100, 150 mM NaCl, 1 mM NaF, 2 mM DTT and protease inhibitors. Cells are incubated on ice for 30 minutes then centrifuged at 15000 g for 20 minutes at 4° C. Purification of the supernatant sample is carried out at 4° C. by affinity chromatography using SEPHAROSE™ agarose gel beads coupled to glutathione (from Amersham Pharmacia Biotech). A cell lysate/GST resin ratio of 50:1 is used. The GST resin is firstly pre-rinsed to remove ethanol preservative and then equilibrated with lysis buffer. Cell lysate (supernatant) is added (usually as 50 ml lysate to 1 ml GST resin in 50 ml tubes) and gently rotated on a mixer at 4° C. for 2-3 hours. The unbound flow through sample is collected by centrifugation at 1000 g for 5 minutes at 4° C. using a DENLEY™ centrifuge. The 1 ml GST resin containing bound material is transferred to a 15 ml FALCON™ centrifuge tube for subsequent washing and elution steps. Firstly a series of 3 cycles of washings (mixing by gentle inversion) is performed with 15 ml ice cold wash Buffer A (50 mM Tris-HCl pH 7.5, 1% Triton X-100, 2 mM DTT) interspersed with centrifugation at 1000 g for 5 minutes at 4° C. A final single wash step is performed with 15 ml ice cold wash Buffer B (50 mM Tris-HCl pH 7.5, 2 mM DTT) and then centrifuged at 1000 g for 5 minutes at 4° C. The washed GST resin is finally eluted with 4 cycles of 1 ml ice cold elution buffer (50 mM Tris-HCl pH 7.5, 10 mM reduced glutathione, 2 mM DTT, 150 mM NaCl, 1 mM NaF, 50% ethylene glycol and protease inhibitors) interspersed with centrifugation at 1000 g for 5 minutes at 4° C. Samples are aliquoted and stored at −20° C.
An in vitro kinase assay was established that measures the transfer of the terminal phosphate of adenosine triphosphate to phosphatidylinositol. The kinase reaction is performed in a white 96 well microtitre plate as a Scintillation Proximity Assay. Each well contains 10 μl test compound in 5% dimethylsulphoxide and 20 μl assay mix (40 mM Tris, 200 mM NaCl, 2 mM ethyleneglycol-aminoethyl-tetraacetic acid (EGTA), 15 μg/ml phosphatidylinositol, 12.5 μM adenosine triphosphate (ATP), 25 mM MgCl2, 0.1 μCi [^33P]ATP). […]

T1 sequence (P48736 38-1102): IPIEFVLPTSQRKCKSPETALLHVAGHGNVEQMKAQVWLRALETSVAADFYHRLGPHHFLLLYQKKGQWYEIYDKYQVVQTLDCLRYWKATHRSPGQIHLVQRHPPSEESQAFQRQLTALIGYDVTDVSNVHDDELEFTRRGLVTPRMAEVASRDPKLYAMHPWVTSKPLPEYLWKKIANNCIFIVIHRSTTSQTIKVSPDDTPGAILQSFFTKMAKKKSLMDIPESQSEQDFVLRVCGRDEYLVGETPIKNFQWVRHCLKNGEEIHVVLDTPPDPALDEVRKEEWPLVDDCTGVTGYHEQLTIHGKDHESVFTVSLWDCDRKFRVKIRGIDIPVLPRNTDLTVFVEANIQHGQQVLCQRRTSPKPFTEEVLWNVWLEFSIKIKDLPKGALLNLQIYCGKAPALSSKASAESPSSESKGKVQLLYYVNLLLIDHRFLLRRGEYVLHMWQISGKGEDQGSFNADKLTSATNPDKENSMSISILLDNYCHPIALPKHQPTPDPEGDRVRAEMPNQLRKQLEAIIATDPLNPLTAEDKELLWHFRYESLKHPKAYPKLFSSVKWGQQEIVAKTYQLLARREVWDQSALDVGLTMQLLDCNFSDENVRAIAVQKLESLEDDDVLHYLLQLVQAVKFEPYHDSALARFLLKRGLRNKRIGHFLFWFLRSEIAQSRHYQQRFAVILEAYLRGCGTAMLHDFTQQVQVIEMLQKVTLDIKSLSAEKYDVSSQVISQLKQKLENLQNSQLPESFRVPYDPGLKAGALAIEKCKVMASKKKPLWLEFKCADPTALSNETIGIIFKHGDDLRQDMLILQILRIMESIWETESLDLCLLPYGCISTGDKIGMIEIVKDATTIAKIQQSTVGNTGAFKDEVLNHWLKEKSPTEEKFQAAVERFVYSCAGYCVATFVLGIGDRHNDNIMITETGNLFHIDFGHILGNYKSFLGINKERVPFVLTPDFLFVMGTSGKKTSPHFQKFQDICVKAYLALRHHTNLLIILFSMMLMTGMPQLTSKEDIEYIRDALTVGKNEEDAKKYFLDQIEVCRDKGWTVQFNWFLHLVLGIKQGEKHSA

Molecule | IC50 [µM] | increase in activity over the corresponding compound described in WO0521519 (fold, from IC50 (?) values of the table)
Cc1nc(NC(=O)NCCc2cn(CCF)cn2)sc1-c1ccc(S(C)(=O)=O)c(F)c1 [compound 7, 1-{2-[1-(2-Fluoro-ethyl)-1H-imidazol-4-yl]-ethyl}-3-[5-(3-fluoro-4-methanesulfonyl-phenyl)-4-methyl-thiazol-2-yl]-urea] | 0.028 | –
Cc1nc(NC(=O)NCCc2nnn(CCF)n2)sc1-c1ccc(S(C)(=O)=O)c(F)c1 [compound 8, 1-{2-[2-(2-Fluoro-ethyl)-2H-tetrazol-5-yl]-ethyl}-3-[5-(3-fluoro-4-methanesulfonyl-phenyl)-4-methyl-thiazol-2-yl]-urea] | 0.01 | four-fold
Cc1nc(NC(=O)NCCC(=O)NCC(F)F)sc1-c1ccc(S(C)(=O)=O)c(F)c1 [compound 2, N-(2,2-Difluoroethyl)-3-{3-[5-(3-fluoro-4-methanesulfonyl-phenyl)-4-methyl-thiazol-2-yl]-ureido}-propionamide] | 0.028 | –
N-(2-Fluoro-1,1-dimethyl-ethyl-3-{3-[5-(3-fluoro-4-methanesulfonyl-phenyl)-4-methyl-thiazol-2-yl]-ureido}-propionamide [compound 1] | 0.046 | –

Source: patent US7998990B2, “5-phenyl-thiazol-2-yl-urea derivatives and use as PI3 kinase inhibitors” (Novartis AG, priority 2006, dated 2011)
